Legend:
A498 = experiment: MTT growth inhibition, A498; assay type: cell-based, human; details: A498 cells, 72 hrs
Description: (§1) The growth inhibitory effects of avicin D and oxetane derivative were measured using the MTT [3-(4,5-dimethylthiazol-2-yl)-2,5-diphenyl tetrazolium bromide] reduction assay as described in Haridas et al. (2001). Cells were cultured with varying concentrations of avicin D or oxetane in 96-well plates for 72 hrs at 37° C. At the end of 72 hrs, cells were stained with MTT for 2 hrs and then incubated with lysis buffer (20% SDS in 50% N,N-dimethylformamide) for another 6 hrs. Optical density at 570 nm was used as a measure of cell viability.
(§2) The cell lines 769P, A498, CAKI-1, and CAKI-2 are derived from primary human renal-cell cancers (RCC). A549 is a human lung adenocarcinoma epithelial cell line. B16F10 is a mouse melanoma cell line. BT474, BT 474 M1, BT549, MCF7, […], and ZR751 are breast cancer cell lines. CCRF-CEM, Jurkat, and MOLT4 are leukemia cell lines. HELA is cell line derived from cervical caner. HepG2 is a human hepatocellular liver carcinoma cell line. JeKo-1 is a mantle cell lymphoma (MCL) cell line. LnCAP is a cell line was established from a metastatic lesion of human prostatic adenocarcinoma. MM.1 and RPMI-8226 are human multiple myeloma cell lines. OVCAR3 and SKOV3 are ovarian cancer cell lines. Panc-1 is a pancreatic cancer cell line. PC3 is a prostate cancer cell line. Raji is a Burkitt's lymphoma cell line. RL is a non-Hodgkin's lymphoma cell line. […]

BT474 = experiment: MTT growth inhibition, BT474; assay type: cell-based; details: BT474 cells, 72 hrs
Description: as §1, §2

CAKI-1 = experiment: MTT growth inhibition, CAKI-1; assay type: cell-based, human; details: CAKI-1 cells, 72 hrs
Description: as §1, §2

Hela = experiment: MTT growth inhibition, Hela; assay type: cell-based; details: Hela cells, 72 hrs
Description: as §1, §2

JEKO-1 = experiment: MTT growth inhibition, JEKO-1; assay type: cell-based; details: JEKO-1 cells, 72 hrs
Description: as §1, §2

Jurkat = experiment: MTT growth inhibition, Jurkat; assay type: cell-based, human; details: Jurkat cells, 72 hrs (Table 5)
Description: as §1, §2

LnCAP = experiment: MTT growth inhibition, LnCAP; assay type: cell-based, human; details: LnCAP cells, 72 hrs
Description: as §1, §2

MINO = experiment: MTT growth inhibition, MINO; assay type: cell-based; details: MINO cells, 72 hrs
Description: as §1, §2

MOLT4 = experiment: MTT growth inhibition, MOLT4; assay type: cell-based; details: MOLT4 cells, 72 hrs
Description: as §1, §2

PC3 = experiment: MTT growth inhibition, PC3; assay type: cell-based; details: PC3 cells, 72 hrs
Description: as §1, §2

RPMI 8226 = experiment: MTT growth inhibition, RPMI 8226; assay type: cell-based, human; details: RPMI 8226 cells, 72 hrs
Description: as §1, §2

SKOV3 = experiment: MTT growth inhibition, SKOV3; assay type: cell-based; details: SKOV3 cells, 72 hrs
Description: as §1, §2

U2OS = experiment: MTT growth inhibition, U2OS; assay type: cell-based, human; details: U2OS cells, 72 hrs
Description: as §1, §2

U266 = experiment: MTT growth inhibition, U266; assay type: cell-based; details: U266 cells, 72 hrs
Description: as §1, §2

3T3 L1 = experiment: MTT growth inhibition, 3T3 L1; assay type: cell-based; details: 3T3 L1 fibroblast cells, 72 hrs
Description: as §1, §2

HS27 = experiment: MTT growth inhibition, HS27; assay type: cell-based; details: HS27 human foreskin fibroblast cells, 72 hrs
Description: as §1, §2

Nrf2 = Nrf2 activation, ARE-driven luciferase in Hep G2 cells; assay type: cell-based, human; details: Hep G2 cells transfected with hARE-luc, luciferase activity
Description: Activation of Nrf2 was assessed by measuring the antioxidant response element (ARE)-mediated gene expression as described previously by Haridas et al., 2004, which is incorporated herein by reference. Briefly, ARE is a cis-acting regulatory sequence identified in the promoter region of several genes encoding phase 2 detoxification enzymes, that binds to Nrf2. Hep G2 (human hepatocarcinoma) cells were transfected with a human ARE-driven luciferase (luc) containing plasmid, hARE-luc. Following exposure to avicin D/compound 8, the luciferase activity induced in these cells was measured using a dual-luciferase assay kit (Promega) according to the manufacturer's protocol.

[1] = tested on: HMLE cells expressing TWIST; experiment: Mammosphere formation, cancer stem cell model; assay type: cell-based, human; details: 60 nM, added day 7 and every 7th day, seen on day 21
Description: Human mammary epithelial cells were transfected with transcription factor TWIST acquiring mesenchymal stem cell-like traits, including the ability to form mammospheres. See Cano et al., 2000; Yang et al., Cell, 2004; Mani et al., 2008, which are all incorporated herein by reference.
HMLE cells expressing TWIST were plated at 100 cells/0.1 ml in 96-well plates. The cells were cultured in MEGM media supplemented with 20 ng/mL bFGF, 10 ng/mL EGF, 4 ug/mL heparin, and 1% methyl cellulose. Formation of spheres could be seen around day 7. Avicin D/Compound 8 (60 nM) was first added to the cultures on day 7 and subsequently every 7th day. […] See FIGS. 6A-D, which show mammospheres treated with 60 nM of Avicin D or Compound 8 for fourteen days. The ability of these agents to induce cell kill in both the tumor cell population as well as the stem-like cells enhances their potential for use as a cancer therapy.

NF-κB = experiment: Inhibition of NF-κB activation (FIG. 2A); assay type: cell-based; details: compared with dexamethasone
IL-6 = IL-6 expression, constitutive and TNF-induced (FIG. 2B); assay type: cell-based
[2] = tested on: p(IL6-κB)350hu.IL6P-Luc in HEK 293T cells; experiment: TNF-induced NF-κB luciferase reporter in HEK 293T cells with and without GR (FIG. 3); assay type: cell-based
Description: However, TNF-induced activation of p(IL6-κB)350hu.IL6P-Luc was inhibited by both avicin D and Dex in HEK 293T cells transfected with GR (FIG. 3). […] This observation supports the notion that avicins are not able to induce GR transactivation.

[3] = molecular target: glucocorticoid receptor (GR) (Homo sapiens, UniProt P04150); experiment: GR Ser-211 phosphorylation (FIG. 4); assay type: cell-based; details: up to 16 hours
Chain of glucocorticoid receptor (GR) (P04150 whole entry): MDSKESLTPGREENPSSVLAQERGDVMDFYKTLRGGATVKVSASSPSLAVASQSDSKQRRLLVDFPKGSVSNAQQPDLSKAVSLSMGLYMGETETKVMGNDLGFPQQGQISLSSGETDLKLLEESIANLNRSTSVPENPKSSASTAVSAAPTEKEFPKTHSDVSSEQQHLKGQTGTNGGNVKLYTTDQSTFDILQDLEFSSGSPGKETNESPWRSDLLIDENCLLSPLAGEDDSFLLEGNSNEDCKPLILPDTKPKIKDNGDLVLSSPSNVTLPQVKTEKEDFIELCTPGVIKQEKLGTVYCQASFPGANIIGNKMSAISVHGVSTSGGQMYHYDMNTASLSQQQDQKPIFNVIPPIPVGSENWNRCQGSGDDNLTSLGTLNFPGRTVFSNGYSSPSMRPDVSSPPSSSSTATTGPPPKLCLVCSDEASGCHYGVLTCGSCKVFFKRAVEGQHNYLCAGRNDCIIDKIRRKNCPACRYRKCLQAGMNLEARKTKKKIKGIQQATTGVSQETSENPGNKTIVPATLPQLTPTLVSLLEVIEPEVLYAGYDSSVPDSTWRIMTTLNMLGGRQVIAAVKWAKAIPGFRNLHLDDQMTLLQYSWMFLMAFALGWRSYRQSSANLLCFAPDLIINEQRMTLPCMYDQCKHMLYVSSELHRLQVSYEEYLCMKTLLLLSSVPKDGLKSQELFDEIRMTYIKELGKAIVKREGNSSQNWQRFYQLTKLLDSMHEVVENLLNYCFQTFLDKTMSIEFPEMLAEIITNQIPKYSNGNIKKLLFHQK

[4] = tested on: PKA-mediated CREB activity; details: cited from earlier work

IC50 (BT474): 2.8 µM | IC50 (Hela): 13.2 µM | IC50 (Jurkat): 0.17 µM | IC50 (LnCAP): 0.47 µM | IC50 (MOLT4): 0.32 µM | IC50 (PC3): 0.44 µM | IC50 (SKOV3): 1 µM | IC50 (U2OS): 4.4 µM | IC50 (U266): 0.3 µM
SMILES: C=C[C@](C)(O)CC/C=C(\CO)C(=O)O[C@H]1[C@H](O)[C@@H](O)[C@H](O[C@@](C)(C=C)CC/C=C(\CO)C(=O)O[C@H]2C[C@]3(C(=O)O[C@@H]4O[C@H](CO)[C@@H](O)[C@H](O)[C@H]4O[C@@H]4O[C@@H](C)[C@H](O[C@@H]5O[C@@H](CO)[C@H](O)[C@H]5O)[C@@H](O[C@@H]5O[C@H](CO)[C@@H](O)[C@H](O)[C@H]5O)[C@H]4O)[C@H](O)C[C@]4(C)C(=CC[C@@H]5[C@@]6(C)CC[C@H](O[C@@H]7O[C@H](CO[C@@H]8O[C@H](C)[C@H](O)[C@H](O)[C@H]8O[C@@H]8OC[C@@H](O)[C@H](O)[C@H]8O)[C@@H](O)[C@H](O)[C@H]7NC(C)=O)C(C)(C)[C@@H]6CC[C@]54C)[C@@H]3CC2(C)C)O[C@@H]1C [Avicin D]
IC50 (A498): 0.44 µM | IC50 (CAKI-1): 1.12 µM | IC50 (JEKO-1): 0.42 µM | IC50 (MINO): 0.42 µM | IC50 (RPMI 8226): 0.3 µM | IC50 (3T3 L1): 3.8 µM | IC50 (HS27): 6.1 µM | Fold Nrf2 activation (Nrf2): 2.10 | development of mammospheres as measured by the size of the spheres [1]: appear to inhibit the development of these spheres | activation of NF-κB (NF-κB): inhibits activation of NF-κB | expression of IL-6 (IL-6): suppresses the expression of both constituitive and TNF-induced IL-6 | TNF-induced activation of p(IL6-κB)350hu.IL6P-Luc ([2]; HEK 293T cells transfected with GR): inhibited | luciferase activity ([2]; wild type HEK 293T cells (no GR)): neither avicin D nor dexamethasone had an effect | phosphorylation of Ser-211 [3]: does not enhance phosphorylation of Ser-211 even after 16 hours | PKA-mediated CREB activity [4]: inhibited PKA-mediated CREB activity

Source: patent US9175030B2, “Derivatives of avicin D and methods of making and using thereof” (priority 2012, dated 2015)
